Literature values, collected in patent US20230243813A1, “METHODS FOR SELECTING AND TREATING CANCER WITH FGFR3 INHIBITORS” (GENECENTRIC THERAPEUTICS, INC., priority 2020, published 2023).
Read-outs that look alike come from different tables or passages of the source.

Tested on: bladder cancer cell lines
Settings: GDSC1/GDSC2 IC50 data, RNA-seq and Affymetrix U219 expression, FAS-1 to FAS-4 scores

Row | sensitivity (IC50) of samples identified as altered by the FAS classifiers | sensitivity (IC50) of samples identified as altered by the FAS classifiers (listed as BIBF) | SMILES
1 | high sensitivity | showed samples with sensitivity | COC(=O)c1ccc2c(c1)NC(=O)/C2=C(\Nc1ccc(N(C)C(=O)CN2CCN(C)CC2)cc1)c1ccccc1 [BIBF 1120, nintedanib]
2 | showed samples with sensitivity |  | COc1cc2c(Oc3ccc(NC(=O)C4(C(=O)Nc5ccc(F)cc5)CC4)cc3F)ccnc2cc1OCCCN1CCOCC1 [foretinib, Foretinib]
